The values that follow are results of earlier work, collected in patent publication US6710179B2, “Compounds with analgesic effect” (AstraZeneca Canada Inc., priority 1996, dated 2004).

One data set deals with δ receptor (Homo sapiens, UniProt P41143). The note with it: non-peptidic δ antagonists; review Takemori and Portoghese 1992.
For data set [1] the following is noted: non-peptidic δ antagonists; prior art statement.

Chain of δ receptor (P41143 whole entry): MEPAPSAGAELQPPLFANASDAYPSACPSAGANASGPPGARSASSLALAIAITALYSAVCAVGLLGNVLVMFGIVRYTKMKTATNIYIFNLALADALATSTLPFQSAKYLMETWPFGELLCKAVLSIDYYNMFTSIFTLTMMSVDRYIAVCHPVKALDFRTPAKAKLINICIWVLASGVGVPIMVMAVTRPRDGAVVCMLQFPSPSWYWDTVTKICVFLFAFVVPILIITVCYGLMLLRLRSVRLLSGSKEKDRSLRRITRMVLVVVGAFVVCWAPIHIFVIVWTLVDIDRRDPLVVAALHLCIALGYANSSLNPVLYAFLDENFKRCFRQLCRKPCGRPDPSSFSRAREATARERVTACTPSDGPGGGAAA

As for `Oc1ccc2c3c1O[C@H]1c4[nH]c5ccccc5c4C[C@@]4(O)[C@@H](C2)N(CC2CC2)CC[C@]314` [naltrindole], the “selectivity for the δ receptor vs. μ receptor binding” value on δ receptor is on record as less than 10 fold. The analgesic activity result in data set [1] is given as “no analgesic activity”.
